According to patent US9655899B2, “Compositions and methods for treating cancer” (Merck Sharp & Dohme Corp., priority 2012, dated 2017):
Like-named read-outs stand apart in the source and are kept apart here.

What was measured:
[1] = test system: KNS62; experiment: PKMYT1 siRNA knockdown proliferation assay (ViaLight, 72 hours); format: cell-based, human; conditions: for dose response curves in control (CT) versus PKMYT1 siRNA transfected cells / EC50: 72 hours; for EC50: Homo sapiens, KNS-62, 72 h, n=2, read-out: anti-proliferative EC50
Method: (§1) For the knockdown studies, NCI-H460 and KNS62, two non-small cell lung cancer cell lines, American Type Culture Collection, Manassas, Va., were transfected with siRNA pools (SMARTpool, Dharmacon, Thermo Fisher Scientific, Waltham, Mass.) with either non-targeting control or PKMYT1 sequences. […] To approximate cell content, ViaLight (Lonza, Basel, Switzerland) was used according to manufacturer's protocol. Samples were run in triplicate and growth was calculated by determining the percentage of the control raw value for each treatment.

[2] = test system: NCI-H460; experiment: as above; format: cell-based, human; conditions: for dose response curves in control (CT) versus PKMYT1 siRNA transfected cells / EC50: 72 hours; for EC50: Homo sapiens, NCI-H460, 72 h, n=3, read-out: anti-proliferative EC50
Method: as §1

[3] = test system: 522 cancer cell lines; experiment: Cellular proliferation assay screen (CellTiter-Glo, 96 hours); format: cell-based, human; conditions: for EC50: Homo sapiens, 96 h
Method: (§2) All cancer cell lines were grown in medium recommended by the cell line vendor (ATCC). Tissue culture media, serum, and supplements were purchased from Sigma-Aldrich® (St. Louis, Mo.). For the proliferation assay screen (FIG. 1), cells were plated in 384-well tissue culture plates and grown under compound or vehicle treatment. After 96 hours, CellTiter-Glo (Promega, Madison, Wis.) was used according to the manufacturer's protocol to approximate cell content. Samples were run in triplicate and growth was calculated as the CellTiter-Glo raw value of treated samples relative to vehicle-treated control wells.

[4] = test system: colorectal cancer cell lines; experiment: as above; format: cell-based; conditions: Homo sapiens, n=66
Method: as §2

[5] = test system: neuroblastoma tumor cell lines; experiment: as above; format: cell-based; conditions: Homo sapiens, n=7
Method: as §2

[6] = test system: A427 non-small cell lung cancer cell line; experiment: Proliferation assay; format: cell-based; conditions: Homo sapiens, A-427
Method: as §2

[7] = test system: A431; experiment: Proliferation assay; format: cell-based; conditions: Homo sapiens, A-431
Method: as §2

[8] = test system: ES-2; experiment: Proliferation assay; format: cell-based; conditions: Homo sapiens
Method: as §2

[9] = test system: KNS62; experiment: Proliferation assay; format: cell-based; conditions: Homo sapiens, KNS-62
Method: as §2

[10] = test system: NCI-H460; experiment: Proliferation assay; format: cell-based; conditions: Homo sapiens
Method: as §2

[11] = test system: pCHK1^S345; experiment: Western blot, DNA damage response marker; format: cell-based, human; conditions: 2 hours
Excerpt: (§3) Cells were lysed in mammalian protein extraction reagent (MPER, Thermo Fisher 78505, Waltham, Mass.) and then subjected to SDS-PAGE and transferred onto nitrocellulose or PVDF membranes. Antibodies used for Western blotting are from the following sources: total CDK1, pCDK1^Y15, pCDK1^T14, pCHK1^S345, pStathmin^S38, pLaminA/C^S22, pCDK substrate motif, γH2AX, Cyclin A, and total PKMYT1 from Cell Signaling Technologies (Beverly, Mass.); actin-HRP from Santa Cruz Biotechnology (Santa Cruz, Calif.); secondary HRP-conjugated anti-mouse and rabbit antibodies from GE Healthcare (Waukesha, Wis.). Blots were exposed with SuperSignal West Femto chemiluminescent substrate (Thermo Fisher Pierce, Waltham, Mass.).

[12] = test system: pCDK1^Y15; experiment: Western blot, WEE1 substrate phosphorylation; format: cell-based, human; conditions: all six cell lines; 2 hours
Excerpt: as §3

[13] = test system: pCDK1^T14; experiment: Western blot, CDK1 T14 phosphorylation; format: cell-based, human; conditions: six cell lines, possible exception of A427; 2 hours
Excerpt: as §3

[14] = test system: TOV21G ovarian cancer cells; experiment: Flow cytometry for DNA double strand breaks (γH2AX) and BrdU uptake; format: cell-based, human; conditions: 150 nM
Method: (§4) To detect DNA double strand breaks, cells were stained with a FITC-conjugated anti-γH2AX (S139) antibody (kit 17-344, Millipore, Billerica, Mass.) after having been fixed overnight in ice-cold 70% ethanol Propidium iodide (PI)/RNase solution (BD Biosciences, Franklin Lakes, N.J.) was used to detect total DNA content. For studies interrogating premature mitosis, an anti-pHH3-Alexa 647 antibody (BD Biosciences 558217) was added. For synchronization studies, cells were incubated in serum-free medium for 36 hours, followed by replenishment with 20% FBS. One hour prior to each harvest, cells were pulsed with 10 μM bromodeoxyuridine (BrdU). Cells were fixed and stained for BrdU and DNA content with an anti-BrdU FITC-conjugated antibody and 7-aminoactinomycin-D (7-AAD) dye, respectively, according to the instructions in the BD Pharmingen™ FITC BrdU Flow Kit (BD Biosciences, Franklin Lakes, N.J.). All cytometry data were collected on the BD LSR II flow cytometer using the BD FACS Diva™ software (BD Biosciences, Franklin Lakes, N.J.), and the results were analyzed in FlowJo version 7.5.

[15] = test system: ES-2 cells; experiment: Cell synchronization study, S-phase population (BrdU); format: cell-based, human
Method: For synchronization studies, cells were incubated in serum-free medium for 36 hours, followed by replenishment with 20% FBS. One hour prior to each harvest, cells were pulsed with 10 μM bromodeoxyuridine (BrdU). Cells were fixed and stained for BrdU and DNA content with an anti-BrdU FITC-conjugated antibody and 7-aminoactinomycin-D (7-AAD) dye, respectively, according to the instructions in the BD Pharmingen™ FITC BrdU Flow Kit (BD Biosciences, Franklin Lakes, N.J.). All cytometry data were collected on the BD LSR II flow cytometer using the BD FACS Diva™ software (BD Biosciences, Franklin Lakes, N.J.), and the results were analyzed in FlowJo version 7.5.

[16] = test system: A2058 cells; experiment: Flow cytometry for mitotic marker pHH3; format: cell-based, human; conditions: EC90 concentration; 24 hours
Method: (§5) To detect DNA double strand breaks, cells were stained with a FITC-conjugated anti-γH2AX (S139) antibody (kit 17-344, Millipore, Billerica, Mass.) after having been fixed overnight in ice-cold 70% ethanol Propidium iodide (PI)/RNase solution (BD Biosciences, Franklin Lakes, N.J.) was used to detect total DNA content. For studies interrogating premature mitosis, an anti-pHH3-Alexa 647 antibody (BD Biosciences 558217) was added.

[17] = test system: HT-29 cells; experiment: Flow cytometry for mitotic marker pHH3; format: cell-based, human; conditions: EC90 concentration; 24 hours
Method: as §5

[18] = test system: LoVo cells; experiment: Flow cytometry for mitotic marker pHH3; format: cell-based, human; conditions: EC90 concentration; 24 hours
Method: as §5

[19] = test system: A2058 cells; experiment: Flow cytometry for γH2AX at EC90; format: cell-based, human; conditions: EC90 concentration; 24 hours
Method: as §5

[20] = test system: HT-29 cells; experiment: Flow cytometry for γH2AX at EC90; format: cell-based, human; conditions: EC90 concentration; 24 hours
Method: as §5

[21] = test system: LoVo cells; experiment: Flow cytometry for γH2AX at EC90; format: cell-based, human; conditions: EC90 concentration; 24 hours
Method: as §5

[22] = test system: ES-2 cells; experiment: Flow cytometry for γH2AX in serum-starved cells with or without FBS; format: cell-based, human; conditions: 500 nM; 24 hours; 20% FBS
Method: as §4

[23] = twice daily (BID) dosing
Excerpt: (§6) CD-1 Nu/Nu female mice aged 5-6 weeks were obtained from Charles River Laboratories (Wilmington, Del.) and housed in Applicants animal care facility at standard laboratory conditions and fed 2018S autoclaveable diet (Harlan Laboratories, Indianapolis, Ind.) and water ad libitum. The protocol was approved by Applicants' in-house animal care and use committee. Mice were inoculated with cells (1:1 Matrigel:PBS) subcutaneously (SC) into the right flank. […] Tumor volume and body weights were recorded bi-weekly.

[24] = test system: A427 xenograft; experiment: In vivo efficacy, xenograft; design: species or system mice; conditions: 60 mg/kg BID, 28 days
Excerpt: as §6

[25] = test system: A431 epidermoid tumor model; experiment: In vivo efficacy, xenograft; design: species or system mice; conditions: single agent
Excerpt: as §6

[26] = test system: LoVo colorectal tumor model; experiment: In vivo efficacy, xenograft; design: species or system mice; conditions: single agent, 60 mg/kg BID; treatment stopped on day 13
Excerpt: as §6

[27] = test system: NCI-H2122 NSCLC model; experiment: In vivo efficacy, xenograft; design: species or system mice; conditions: single agent
Excerpt: as §6

[28] = test system: SK-MES-1 NSCLC model; experiment: In vivo efficacy, xenograft; design: species or system mice; conditions: single agent, 60 mg/kg BID
Excerpt: as §6

O=C(NOC[C@H](O)CO)c1ccc(F)c(F)c1Nc1ccc(I)cc1F [PD-0325901, reference compound]
dose response curves in control (CT) versus PKMYT1 siRNA transfected cells [1]: identical dose response curves
dose response curves in control (CT) versus PKMYT1 siRNA transfected cells [2]: identical dose response curves

C=CCn1c(=O)c2cnc(Nc3ccc(N4CCN(C)CC4)cc3)nc2n1-c1cccc(C(C)(C)O)n1 [WEE1-1, 2-allyl-1-[6-(1-hydroxy-1-methylethyl)pyridin-2-yl]-6-{[4-(4-methylpiperazin-1-yl)phenyl]amino}-1,2-dihydro-3H-pyrazolo[3,4-d]pyrimidin-3-one]
response on an adjusted scale (cell lines that were killed) ([3]; 450 nM, 33 of 305 cell lines, 96-hour proliferation assay, 0.25 or less = cell death): < 0.25
EC50 ([3]; lower end of range, 2% (9/522) of cell lines): ≤ 100 nM
EC50 ([3]; upper end of range, 19% (98/522) of cell lines): ≥ 1000 nM
range of anti-proliferative EC50s ([3]; across cell lines screened): at least 10 fold
EC50 ([4]; read-out: EC50 range): ≥ 170 nM
EC50 ([4]; read-out: mean EC50): 1160 nM
EC50 ([5]; read-out: EC50 range): 120 to 450 nM
EC50 ([5]; read-out: mean EC50): 280 nM
EC50 [6]: 116 nM
EC50 [7]: 170 nM
EC50 [8]: 256 nM
EC50 [9]: 487 nM
EC50 [10]: 535 nM
lowest concentration with evidence of increased pCHK1^S345 ([11]; ES-2, A2058, A431 and A427): 50 nM
activation of the DDR (pCHK1^S345) ([11]; all six cell lines (ES-2, A2058, A431, A427, KNS62, NCI-H460)): dose-dependent activation of the DDR
effect on pCDK1^Y15 [12]: dose-dependent reduction
effect on pCDK1^T14 [13]: did not observe a WEE1-1-dependent effect
share of DNA damage detected in BrdU-positive cells ([14]; 2 hours): 95%
share of DNA damage detected in BrdU-positive cells ([14]; 6 hours): 92%
cells staining positive for γH2AX ([14]; two hours of treatment, 1% to 2% in untreated growing cells): 23%
change in the S-phase population by 8 hours ([15]; 500 nM with 20% FBS): no detectable change
peak S-phase population ([15]; 500 nM with 20% FBS after 36 hours serum withdrawal): about 50%
time of peak S-phase population post-FBS ([15]; 500 nM with 20% FBS, vehicle peak at 12 to 14 hours): 24 h
percentage of pHH3 positive cells [16]: increased
mitotic (pHH3 positive) population with 4N DNA [17]: 43%
mitotic (pHH3 positive) population with <4N DNA [17]: 23%
percentage of pHH3 positive cells [18]: increased
H2AX-positive cell population [19]: 8%
H2AX-positive cell population [20]: 59%
H2AX-positive cell population [21]: 27%
degree of DNA double strand breaks (γH2AX) under mitogen stimulation versus cells not restimulated [22]: appreciably larger
maximum tolerated dose (MTD) [23]: 60 mg per kg
final volumes of individual treated tumors versus initial volumes ([24]; all 10 tumors): smaller than their initial volumes
regression, final volume as % of the initial mean tumor volume ([24]; n=10): approximately 50%
TGI [25]: 88%
tumor regression [26]: 13%
TGI [27]: 64%
Tumor growth inhibition (TGI) [28]: 92%
maximal effect of treatment upon PKMYT1 depletion [1]: not affected
EC50 ([1]; PKMYT1 knocked down): 93 nM
EC50 ([1]; non-targeting control siRNA): 487 nM
maximal effect of treatment upon PKMYT1 depletion [2]: not affected
EC50 ([2]; PKMYT1 knocked down): 104 nM
EC50 ([2]; non-targeting control siRNA): 677 nM

N.N.O=C([O-])C1(C(=O)[O-])CCC1.[Pt+2] [carboplatin, reference compound]
dose response curves in control (CT) versus PKMYT1 siRNA transfected cells [1]: identical dose response curves
dose response curves in control (CT) versus PKMYT1 siRNA transfected cells [2]: identical dose response curves

COc1cccc2c1C(=O)c1c(O)c3c(c(O)c1C2=O)C[C@@](O)(C(=O)CO)C[C@@H]3O[C@H]1C[C@H](N)[C@H](O)[C@H](C)O1 [doxorubicin, reference compound]
dose response curves in control (CT) versus PKMYT1 siRNA transfected cells [1]: identical dose response curves
dose response curves in control (CT) versus PKMYT1 siRNA transfected cells [2]: identical dose response curves
